Legend:
[1] = target: T1, lactate dehydrogenase B (LDHB) (Homo sapiens, UniProt P07195); test: LDHB activity assay (NADH fluorescence), dose-dependent; type: biochemical
T1 construct: purified recombinant LDHB

[2] = target: T2, lactate dehydrogenase A (LDHA) (Homo sapiens, UniProt P00338); test: LDHA activity assay (NADH fluorescence), dose-dependent; type: biochemical
T2 construct: purified recombinant LDHA

[3] = target: T2, lactate dehydrogenase A (LDHA); test: ITC; also purified LDHA activity assay by NADH fluorescence (IC50 =[…]); type: binding

T1 sequence (P07195 2-334): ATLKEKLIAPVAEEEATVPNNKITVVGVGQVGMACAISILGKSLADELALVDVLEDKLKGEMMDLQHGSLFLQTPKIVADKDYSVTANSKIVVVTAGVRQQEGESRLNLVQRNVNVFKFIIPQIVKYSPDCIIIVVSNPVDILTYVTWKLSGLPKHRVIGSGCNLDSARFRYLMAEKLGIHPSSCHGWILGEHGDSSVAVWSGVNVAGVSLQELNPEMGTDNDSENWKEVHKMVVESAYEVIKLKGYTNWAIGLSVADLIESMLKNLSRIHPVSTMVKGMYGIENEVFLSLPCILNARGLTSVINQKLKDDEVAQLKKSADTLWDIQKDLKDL

Compound | LDHB activity assay (NADH fluorescence), dose-dependent [1] | LDHA activity assay (NADH fluorescence), dose-dependent [2] | Kd [3]
O=C(O[C@@H]1Cc2c(O)cc(O)cc2O[C@@H]1c1cc(O)c(O)c(O)c1)c1cc(O)c(O)c(O)c1 [EGCG, epigallocatechin-3-gallate] | exert inhibitory effects on both LDHA and LDHB activities | LDHA and LDHB activities were measured with EGCG, which is known to inhibit LDHA activity | –
Oc1cc(O)c2c(c1)OC(c1ccc(O)c(O)c1)C(O)C2 (stereo not drawn) [CA, Catechin] | – | – | 197 µM
